Measurements: patent US4294958A, “Water-soluble salts of trimethylammonium derivatives of polyene macrolide antibiotics and the preparation thereof” (Politechnika Gdanska, priority 1978, dated 1981)
Values after ≈ are worked out from the molar mass of the structure shown. Read-outs that look alike come from different tables or passages of the source.

Tests used:
Assay type in all cases: cell-based
[1] = test system: Saccharomyces cerevisiae cells; assay: antifungal activity: inhibition of growth of Saccharomyces cerevisiae in liquid standard medium
Method: IC50 means the concentration of the substance causing 50% inhibitio
of the growth of Saccharomyces cerevisiae cells in liquid standard medium
determined spectrophotometrically at λ = 600 nm after 24 hours

[2] = haemolytic activity (hemoglobin, determined spectrophotometrically)
From the text: (§1) EH50 means the concentration of the substance causing in conditions
(§2) 50% of hemoglobin determined spectrophotometrically at λ = 550 nm.

[3] = test system: hemoglobin; assay: as above
From the text: as §1, §2

[4] = in vitro haemolysis, 50% of hemoglobin, λ = 550 nm, read-out: EH50 (the source's name)
[5] = 50% inhibition of growth of Saccharomyces cerevisiae, liquid standard medium, λ = 600 nm, 24 hours, 28° C., read-out: IC50
[6] = 50% inhibition of growth of Saccharomyces cerevisiae, liquid standard medium, λ = 600 nm, 24 hours, 28° C.
[7] = in vitro haemolysis, 50% of hemoglobin, λ = 550 nm

Row | Compound | IC50 [1, 6] [µg/mL] | EH50 [3, 7] [µg/mL] | other results
1 | C[C@@H]1[C@H](O)[C@@H](C)/C=C/C=C/C=C/C=C/C=C/C=C/C=C/[C@H](O[C@@H]2O[C@H](C)[C@@H](O)[C@H](N)[C@@H]2O)C[C@@H]2O[C@](O)(C[C@@H](O)C[C@@H](O)[C@H](O)CC[C@@H](O)C[C@@H](O)CC(=O)O[C@H]1C)C[C@H](O)[C@H]2C(=O)O [Amphotericin B, amphotericin B] |  |  | IC50 ([1]; Saccharomyces cerevisiae, 24 h): 0.03 µg/mL (≈ 0.0325 µM); HC50 [2, 4]: 5 µg/mL
2 | COc1cc2c(c3oc(-c4ccccc4)cc(=O)c13)C=CC(C)(C)O2 [Candidin, candidin] |  |  | IC50 [1, 5]: 0.054 µg/mL (≈ 0.161 µM); HC50 [2, 4]: 20 µg/mL
3 | COC(=O)[C@H]1[C@@H]2C[C@@H](O[C@@H]3O[C@H](C)[C@@H](O)[C@H]([N+](C)(C)C)[C@@H]3O)/C=C/C=C/C=C/C=C/C=C/C=C/C=C/[C@H](C)[C@@H](O)[C@@H](C)[C@H](C)OC(=O)C[C@H](O)C[C@H](O)CC[C@@H](O)[C@H](O)C[C@H](O)C[C@](O)(C[C@@H]1O)O2 [DMS-Amphotericin B, N,N,N-trimethylamphotericin B methyl ester] |  |  | IC50 [1, 5]: 0.08 µg/mL; HC50 [2, 4]: 5 µg/mL
4 | C[C@@H]1[C@H](O)[C@@H](C)/C=C/C=C/C=C/C=C/C=C/C=C/C=C/[C@H](O[C@@H]2O[C@H](C)[C@@H](O)[C@H](N)[C@@H]2O)C[C@@H]2O[C@](O)(C[C@@H](O)[C@H](O)CC[C@@H](O)CC(=O)C[C@@H](O)CC(=O)O[C@H]1C)C[C@H](O)[C@H]2C(=O)O [Mycoheptin, mycoheptin] | 0.05 (≈ 0.0542 µM) | 15 | 
5 | C[C@@H]1[C@H](O)[C@@H](C)/C=C/C=C/CC/C=C/C=C/C=C/C=C/C(O[C@H]2O[C@H](C)[C@@H](O)[C@H](N)[C@@H]2O)CC2O[C@](O)(CC(O)C(O)CCC(O)CC(O)CC(O)CC(=O)O[C@H]1C)CC(O)C2C(=O)O (stereo partly drawn) [Nystatin, nystatin] | 0.1 (≈ 0.108 µM) | 50 | 
6 | C[C@@H]1C/C=C/C=C/C=C/C=C/[C@H](O[C@@H]2O[C@H](C)[C@@H](O)[C@H](N)[C@@H]2O)C[C@@H]2O[C@](O)(C[C@@H](O)C[C@H]3O[C@@H]3/C=C/C(=O)O1)C[C@H](O)[C@H]2C(=O)O [Pimaricin, pimaricin] |  |  | IC50 [1, 5]: 1 µg/mL (≈ 1.5 µM); HC50 [2]: 100 µg/mL
7 | CCC[C@@H]1C/C=C/C=C/C=C/C=C/[C@H](O[C@@H]2O[C@H](C)[C@@H](O)[C@H](N)[C@@H]2O)C[C@@H]2O[C@](O)(C[C@@H](O)CCCC(=O)C[C@@H](O)[C@H](CC)C(=O)O1)C[C@H](O)[C@H]2C(=O)O [Rimocidin, rimocidin] | 1.5 (≈ 1.95 µM) | 30 | 
8 | N,N,N-dimethyl-mycoheptin methyl ester [DMS-Mycoheptin] | 0.2 | 65 | 
9 | N,N,N-trimethylcandidin methyl ester [DMS-Candidin] | 0.15 | 70 | 
10 | N,N,N-trimethylnystatin methyl ester [DMS-Nystatin] | 0.25 | 100 | 
11 | N,N,N-trimethylpolifungin methyl ester [DMS-Polifungin] | 0.15 |  | EH50 [3]: 120 µg/mL
12 | N,N,N-trimethylrimocidin methyl ester [DMS-Rimocidin] | 2.5 | 50 | 
13 | aureofacin | 0.005 | 0.35 | 
14 | candicidin | 0.005 | 2.5 | 
15 | levorin | 0.007 | 2.5 | 
16 | perimycin | 0.002 | 5 | 
17 | polyfungin [Polifungin] | 0.08 |  | EH50 [3]: 20 µg/mL
18 | trichomycin | 0.005 | 3 | 
